{"source": "patent US20180221329A1", "about": "“CIS- AND TRANS-SUFFRUTICOSOL D AS THERAPEUTIC AGENTS” (MIDDLE TENNESSEE STATE UNIVERSITY, priority 2015, published 2018)", "key": {"[1]": {"system": "U2OS (human osteosarcoma) cells", "experiment": "Cell proliferation assay (AlamarBlue), U2OS", "type": "cell-based", "conditions": "for Selectivity: U2OS versus normal HMEC cells; for IC50: U2OS, 48 h, AlamarBlue", "description": "(§1) Cell culture. Four human cancer cell lines including A549 (lung carcinoma), BT20 (estrogen receptor-negative human breast adenocarcinoma), MCF-7 (estrogen receptor-positive human breast adenocarcinoma) and U2OS (human osteosarcoma) were purchased from American Type Culture Collection (ATCC). An A549 cell line that stably expresses Green Fluorescent Protein (GFP) was purchased from Cell BioLabs Inc. (San Diego, Calif., USA). A549, A549-GFP and BT20 cells were cultured in RPMI 1640 media (Sigma-Aldrich, St. Louis, Mo., USA), MCF7 cells were cultured in DMEM medium (ATCC, Manassas, Va., USA), and U20S cells were cultured in McCoy's 5A medium (ATCC, Manassas, Va., USA). As a control, HMEC cells (primary human mammary breast epithelial cells) were purchased from ATCC and cultured in McCoy's 5A medium. All medium contained 10% FBS (Sigma-Aldrich, St. Louis, Mo., USA) and 1% streptomycin and penicillin (Sigma-Aldrich, St. Louis, Mo., USA). These cells were incubated in a humid environment with 5% CO2 at 37° C.\n(§2) Cell proliferation assay. The resazurin reduction reagent AlamarBlue (Invitrogen, Frederick, Md., USA) was used to evaluate the cytotoxicity of the compounds. Cells were plated at a density of 5×10^3 cells per well in 96-well microplates with 100 μl culture medium, and were allowed to attach for 16 h prior to treatment. Next, all the medium was replaced with medium containing the cis- or trans-suffruticosol D compounds at seven different concentrations: 320, 100, 32, 10, 3.2, 1.0, and 0.32 μM. The cells were placed in an incubator for 48 h at 37° C. Cells that were treated with medium-containing vehicle (1% DMSO) only serve as negative control. Subsequently, AlamarBlue solution was added to the medium and the cells were incubated in the CO2 incubator for 1 h. The fluorescent intensity change of the dye was measured at Ex 555 nm and Em 590 nm using a plate reader (Molecular Devices, Sunnyvale, Calif., USA). The cytotoxicity was examined by determining by IC50, the dose that inhibited 50% of cell growth, using GraphPad Prism software (GraphPad Software, La Jolla, Calif., USA).\n(§3) Table 1. IC50 values of cis- and trans-suffruticosol D in selected cancer and normal cell lines. Cells were treated with various concentrations of cis- or trans-suffruticosol D for 48 h, and the viability of cells was evaluated with AlamarBlue dye."}, "[2]": {"system": "MCF-7 (estrogen receptor-positive human breast adenocarcinoma) cells", "experiment": "Cell proliferation assay (AlamarBlue), MCF-7", "type": "cell-based", "conditions": "for IC50: MCF-7, 48 h, AlamarBlue; for Selectivity: MCF-7 versus normal HMEC cells", "description": "as §1, §2, §3"}, "[3]": {"system": "A549 (lung), BT20 (breast), MCF7 (breast) and U2OS (osteosarcoma) cancer cell lines", "experiment": "Cell proliferation assay, range over the four cancer cell lines", "type": "cell-based, human", "conditions": "for IC50: A549, BT20, MCF7, U2OS, 48 h, read-out: IC50 values in all four cancer cell lines (range); for selectivity (range over cancer cell lines): cancer cell lines versus normal HMEC", "description": "as §1, §2"}, "[4]": {"system": "HMEC cells (primary human mammary breast epithelial cells)", "experiment": "Cell proliferation assay (AlamarBlue), normal HMEC", "type": "cell-based", "conditions": "48 h", "description": "as §1, §2, §3"}, "[5]": {"system": "A549 (lung carcinoma) cells", "experiment": "Cell proliferation assay (AlamarBlue), A549", "type": "cell-based, human", "conditions": "for Selectivity: A549 versus normal HMEC cells; for IC50: A549, 48 h, AlamarBlue", "description": "as §1, §2, §3"}}, "note": "Read-outs that look alike come from different tables or passages of the source.", "data": [{"smiles": "Oc1ccc(/C=C/c2c3c(cc4c2[C@@H](c2cc(O)cc(O)c2)[C@H](c2ccc(O)cc2)O4)O[C@H](c2ccc(O)cc2)[C@@H]3c2cc(O)cc(O)c2)cc1", "note": "[trans-suffruticosol D]", "values": [{"measurement": "Selectivity", "setting": "[1]; listed as trans-SD", "result": 12.9}, {"measurement": "IC50", "setting": "[1]; listed as trans-SD", "result": "11.3 ± 2.3", "unit": "µM"}, {"measurement": "IC50", "setting": "[2]; listed as trans-SD", "result": "15.8 ± 1.6", "unit": "µM"}, {"measurement": "Selectivity", "setting": "[2]; listed as trans-SD", "result": 9.3}, {"measurement": "IC50", "setting": "[3]", "result": "9.93 to 20.8", "unit": "µM"}, {"measurement": "IC50", "setting": "[3]; Homo sapiens", "result": "9.93 to 15.8", "unit": "µM"}, {"measurement": "selectivity (range over cancer cell lines)", "setting": "[3]", "result": "5.8-20 fold"}, {"measurement": "IC50", "setting": "[4]; listed as trans-SD", "result": "146 ± 2.7", "unit": "µM"}, {"measurement": "IC50", "setting": "[4]; Homo sapiens, HMEC", "result": 270, "unit": "µM"}, {"measurement": "Selectivity", "setting": "[5]; listed as trans-SD", "result": 12.3}, {"measurement": "IC50", "setting": "[5]; Homo sapiens", "result": "11.9 ± 1.2", "unit": "µM"}]}, {"smiles": "Oc1ccc(C=Cc2c3c(cc4c2[C@@H](c2cc(O)cc(O)c2)[C@H](c2ccc(O)cc2)O4)O[C@H](c2ccc(O)cc2)[C@@H]3c2cc(O)cc(O)c2)cc1", "note": "[cis-suffruticosol D]", "values": [{"measurement": "Selectivity", "setting": "[1]; listed as cis-SD", "result": 11}, {"measurement": "IC50", "setting": "[1]; listed as cis-SD", "result": "24.6 ± 4.4", "unit": "µM"}, {"measurement": "IC50", "setting": "[2]; listed as cis-SD", "result": "46.8 ± 3.3", "unit": "µM"}, {"measurement": "Selectivity", "setting": "[2]; listed as cis-SD", "result": 5.8}, {"measurement": "IC50", "setting": "[3]", "result": "13.4 to 46.8", "unit": "µM"}, {"measurement": "selectivity (range over cancer cell lines)", "setting": "[3]", "result": "9.2-14.7 fold"}, {"measurement": "IC50", "setting": "[4]", "result": 146, "unit": "µM"}, {"measurement": "IC50", "setting": "[4]; listed as cis-SD", "result": "269.5 ± 2.2", "unit": "µM"}, {"measurement": "IC50", "setting": "[5]; listed as cis-SD", "result": "17.1 ± 1", "unit": "µM"}, {"measurement": "Selectivity", "setting": "[5]; listed as cis-SD", "result": 15.8}]}]}
